The results in this text go back to US20170209445A1, “KINASE INHIBITORS” (Respivert Limited, priority 2014, published 2017).

Marks after values point to notes of the source that are not given here. Bounds are passed on as bounds.

For one data set, the system named is PBMCs. In words: LPS-induced IL-8 release in PBMC cells. The class given is cell-based. Conditions: Homo sapiens, LPS-stimulated PBMCs, read-out: IC50 Values for Inhibition of Cytokine Release PBMCs IL-8. The protocol: Peripheral blood mononuclear cells (PBMCs) from healthy subjects are separated from whole blood using a density gradient (Lymphoprep, Axis-Shield Healthcare). The PBMCs are seeded in 96 well plates and treated with compounds at the desired concentration for 2 hours before addition of 1 ng/mL LPS (Escherichia Coli 0111:B4 from Sigma Aldrich) for 24 hours under normal tissue culture conditions (37° C., 5% CO2). The supernatant is harvested for determination of IL-8 and TNFα concentrations by sandwich ELISA (Duo-set, R&D systems) and read on the fluorescence microplate reader (Varioskan® Flash, ThermoFisher Scientific).

A further data set relates to Jurkat cells. Kind of data set: Cell cytotoxicity assay (Jurkat cell viability). The class given is cell-based, human. The following applies: 24 hours. The protocol:
1×10^5 Jurkat cells (immortalised human T lymphocytes) are added to the appropriate number of wells of a 96 well plate in 100 μL of media (RPMI supplemented with 10% foetal bovine serum). 1 μL of DMSO control (final concentration 1.0% v/v) or test compound (final concentration 20, 5 or 1 μg/mL) is added to the wells and incubated at 37° C., 5% CO2. After 24 hours, the plate is centrifuged at 1200 rpm for 3 minutes and the supernatant discarded. Cells are then resuspended in 150 μL (final concentration 7.5 μg/mL) of propidium iodide (PI) in PBS and incubated at 37° C., 5% CO2 for 15 minutes. After 15 minutes, cells are analysed by flow cytometry (BD accuri) using the FL3 window. The % viability is calculated as the % of cells that are PI negative in the test wells normalised to the DMSO control.

The nature of data set [1]: Hydrolytic stability study. Conditions: DMSO/water (3:1); for % Parent Remaining, cumulative average from multiple experiments / % Parent Remaining: 1 mg/mL; for % Parent Remaining: experiment in which Example 2 was tested. The class given is physicochemical. As to the method:
Chemical stability of compounds of the invention was assessed in a mixture of DMSO and water (3:1) at a test compound concentration of 1 mg/mL
General HPLC Procedure • Agilent, Waters X-Select C18, 2.5 μm, 4.6×30 mm column, 4 min method, 5-95% • MeCN/water (0.1% formic acid). • Flow rate 2.5 ml/min. • Column Oven Temperature 40° C. • Detection 254 nm.
Sample Preparation • A 1.0 mg sample of test compound was dissolved in 1 mL of DMSO/water (3:1) and the resulting mixture was stirred at rt overnight.
Recording Stability • A 50 μL aliquot of the test solution was removed and analysed in duplicate by 5 μL HPLC injections. The peak area for the test compound (taken to be 100% product, 0% degradation) was recorded following manual integration of the corresponding UV trace. The area retention time was also recorded. • The test solution was heated to 60° C. internal temperature (65° C. block temperature), with stirring, and timing commenced once the target temperature had been reached. After 5 and 24 h, samples were removed and analysed by HPLC (5 μL injections). In all cases, 5 μL injections were used and the samples analysed in duplicate. • The peak areas for the test compounds were recorded at both subsequent timepoints and the % decomposition calculated from the % change in peak area over time.

The next data set concerns the target T1, GSK3α (Homo sapiens, UniProt P49840).
T1 construct: purchased Invitrogen
Kind of data set: GSK3α enzyme inhibition (Method 2), FRET Z-LYTE. The class given is biochemical. As to the method: The enzyme inhibitory activities of compounds disclosed herein are determined by FRET using synthetic peptides labelled with both donor and acceptor fluorophores (Z-LYTE, Invitrogen Ltd., Paisley, UK).
The inhibitory activities of compounds of the invention against the GSK 3α enzyme isoform (Invitrogen), are evaluated by determining the level of activation/phosphorylation of the target peptide. The GSK3-α protein (500 ng/mL, 2.5 μL) is mixed with the test compound (2.5 μL at either 4 μg/mL, 0.4 μg/mL, 0.04 μg/mL, or 0.004 μg/mL) for 2 hr at RT. The FRET peptide (8 μM, 2.5 μL), which is a phosphorylation target for GSK3α, and ATP (40 μM, 2.5 μL) are then added to the enzyme/compound mixture and the resulting mixture incubated for 1 hr. Development reagent (protease, 5 μL) is added for 1 hr prior to detection in a fluorescence microplate reader (Varioskan® Flash, ThermoFisher Scientific).
In all cases, the site-specific protease cleaves non-phosphorylated peptide only and eliminates the FRET signal. Phosphorylation levels of each reaction are calculated using the ratio of coumarin emission (donor) over fluorescein emission (acceptor), for which high ratios indicate high phosphorylation and low ratios indicate low phosphorylation levels.
This method follows the same steps as Method 1 above, but utilises a shorter period of mixing of the test compound (105 minutes instead of 2 hours) with the GSK3-α protein.

T1 sequence (P49840 whole entry): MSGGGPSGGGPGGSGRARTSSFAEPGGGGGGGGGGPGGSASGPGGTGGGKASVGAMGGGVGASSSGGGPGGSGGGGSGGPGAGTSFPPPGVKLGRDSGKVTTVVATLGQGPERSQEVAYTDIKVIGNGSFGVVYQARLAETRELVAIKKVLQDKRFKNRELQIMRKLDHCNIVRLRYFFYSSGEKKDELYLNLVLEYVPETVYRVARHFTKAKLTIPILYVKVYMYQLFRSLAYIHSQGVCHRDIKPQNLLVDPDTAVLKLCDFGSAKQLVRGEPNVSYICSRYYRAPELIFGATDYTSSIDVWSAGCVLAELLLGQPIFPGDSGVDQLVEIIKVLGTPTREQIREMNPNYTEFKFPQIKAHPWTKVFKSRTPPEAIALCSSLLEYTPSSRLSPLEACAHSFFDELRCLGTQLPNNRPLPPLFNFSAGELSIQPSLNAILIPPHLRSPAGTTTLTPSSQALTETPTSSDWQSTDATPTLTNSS

`COc1c(NC(=O)c2ccc(C)c(-c3ccc4nc(Nc5ccc(N=S(C)(C)=O)cc5)ncc4c3)c2)cc(C(C)(C)C)cc1NS(C)(=O)=O` [Example 7, N-(5-(tert-Butyl)-2-methoxy-3-(methylsulfonamido)phenyl)-3-(2-((4-((dimethyl(oxo)-I6-sulfanylidene)amino)phenyl)amino)quinazolin-6-yl)-4-methylbenzamide]: in the data set on PBMCs, the half-inhibitory concentration (IC50) (usually the point on the concentration scale where inhibition reaches its midpoint) came out at 3.8 nM. In the data set with Jurkat cells, the “% Viability at 1 μg/mL” value was 79.0%, the “% Viability at 5 μg/mL” value came out at 54.7% and the “% Viability at 20 μg/mL” value amounted to 49.7%.

`C#Cc1cc(Nc2ncc3cc(-c4cc(C(=O)Nc5cc(C(C)(C)C)cc(NS(C)(=O)=O)c5OC)ccc4C)ccc3n2)cc(C(=O)NCCOCCOCCOC)c1` [14(g), N-(5-(tert-Butyl)-2-methoxy-3-(methylsulfonamido)phenyl)-3-(2-((3-ethynyl-5-((2-(2-(2-methoxyethoxy)ethoxy)ethyl)carbamoyl)phenyl)amino)quinazolin-6-yl)-4-methylbenzamide]: the IC50 with PBMCs came to 17.3 nM. In the data set on Jurkat cells, the “% Viability at 1 μg/mL” value was 110.1%, the “% Viability at 5 μg/mL” value amounted to 75.5% and the “% Viability at 20 μg/mL” value stood at 65.4%.

Turning to `C#Cc1cc(Nc2nccc(Oc3ccc(NC(=O)Nc4cc(C(C)C)nn4-c4ccc(C)cc4)c4ccccc34)n2)cc(C(=O)NCCN2CCOCC2)c1` [Reference Compound B, 3-ethynyl-5-((4-((4-(3-(3-isopropyl-1-(p-tolyl)-1H-pyrazol-5-yl)ureido)naphthalen-1-yl)oxy)pyrimidin-2-yl)amino)-N-(2-morpholinoethyl)benzamide], the “% Parent Remaining, cumulative average from multiple experiments” value in data set [1] (60° C., 300 min) is 71.0%; in data set [1] (60° C., 1440 min), 26.0%; in data set [1] (time 0 min), 100^a (100^b) %. In addition, the “% Parent Remaining” value is given as 93.3% in data set [1] (60° C., 300 min); 52.3% in data set [1] (60° C., 1440 min); 100^a (100^b) % in data set [1] (time 0 min). Further, the “decomposition under the conditions of the hydrolytic stability experiment, in words” value in data set [1] (60° C.) is reported as “underwent substantial decomposition”.

For `COc1c(NC(=O)c2ccc(C)c(-c3ccc4nc(Nc5cccc(CP(C)(C)=O)c5)ncc4c3)c2)cc(C(C)(C)C)cc1NS(C)(=O)=O` [14(i), N-(5-(tert-Butyl)-2-methoxy-3-(methylsulfonamido)phenyl)-3-(2-((3-((dimethylphosphoryl)methyl)phenyl)amino)quinazolin-6-yl)-4-methylbenzamide], in the data set with PBMCs, the IC50 worked out at 6.9 nM. For the same compound, in the data set on Jurkat cells, the “% Viability at 1 μg/mL” value amounted to 69.8%, the “% Viability at 5 μg/mL” value amounted to 8.4% and the “% Viability at 20 μg/mL” value is 2.1%.

As for `COc1cc(Nc2ncc3cc(-c4cc(C(=O)Nc5cc(C(C)(C)C)cc(P(C)(C)=O)c5OC)ccc4C)ccc3n2)cc(C(=O)NCCN2CCOCC2)c1` [Example 4, N-(5-(tert-Butyl)-3-(dimethylphosphoryl)-2-methoxyphenyl)-3-(2-((3-methoxy-5-((2-morpholinoethyl)carbamoyl)phenyl)amino)quinazolin-6-yl)-4-methylbenzamide], the values for the IC50 in the data set on PBMCs and at GSK3α were 14.8 nM and > 12800 nM, respectively.

`COCC(=O)Nc1cc(Oc2ccc(NC(=O)Nc3cc(C(C)(C)C)nn3-c3ccc(C)cc3)c3ccccc23)ccn1` [Reference Compound A, N-(4-(4-(3-(3-tert-butyl-1-p-tolyl-1H-pyrazol-5-yl)ureido)naphthalen-1-yloxy)pyridin-2-yl)-2-methoxyacetamide, reference compound]: in the data set on Jurkat cells, the “% Viability at 1 μg/mL” value came out at 23.5%, the “% Viability at 5 μg/mL” value was 18.9% and the “% Viability at 20 μg/mL” value stood at 17.3%.

`COc1cc(Nc2ncc3cc(-c4cc(C(=O)Nc5cc(C(C)(C)C)cc(NS(C)(=O)=O)c5OC)ccc4C)ccc3n2)ccc1C(=O)O` [Example 8, 4-((6-(5-((5-(tert-Butyl)-2-methoxy-3-(methylsulfonamido)phenyl)carbamoyl)-2-methylphenyl)quinazolin-2-yl)amino)-2-methoxybenzoic acid]: the IC50 in the data set on PBMCs is 4 nM. In the data set with Jurkat cells, the “% Viability at 1 μg/mL” value amounted to 91.1%, the “% Viability at 5 μg/mL” value is recorded as 65.8% and the “% Viability at 20 μg/mL” value is given as 30.6%.

For the compound `COc1cc(Nc2ncc3cc(-c4cc(C(=O)Nc5cc(C(C)(C)C)cc(NS(C)(=O)=O)c5OC)ccc4C)ccc3n2)ccc1C(=O)N(C)CCN1CCOCC1` [Example 9, 4-((6-(5-((5-(tert-Butyl)-2-methoxy-3-(methylsulfonamido)phenyl)carbamoyl)-2-methylphenyl)quinazolin-2-yl)amino)-2-methoxy-N-methyl-N-(2-morpholinoethyl)benzamide], in the data set on PBMCs, the IC50 amounted to 3.1 nM. For the same compound, in the data set on Jurkat cells, the “% Viability at 1 μg/mL” value was determined as 63.0%, the “% Viability at 5 μg/mL” value is on record as 38.4% and the “% Viability at 20 μg/mL” value came to 28.7%.

As to `COc1c(NC(=O)c2ccc(C)c(-c3ccc4nc(Nc5ccc(OS(C)(=O)=O)cc5)ncc4c3)c2)cc(C(C)(C)C)cc1NS(C)(=O)=O` [14(j), 4-((6-(5-((5-(tert-Butyl)-2-methoxy-3-(methylsulfonamido)phenyl)carbamoyl)-2-methylphenyl)quinazolin-2-yl)amino)phenyl methanesulfonate], in the data set on PBMCs, the IC50 was found to be 9.1 nM.
